This note sets out measurements from doi:10.1101/2020.08.07.241463v2 (biorxiv, 2020).

The test concerns the target T1, OpuAC (free / soluble substrate-binding domain) (Lactococcus lactis, UniProt Q7DAU8, N367C/N423C).
T1 sequence (Q7DAU8 320-573 N367C/N423C): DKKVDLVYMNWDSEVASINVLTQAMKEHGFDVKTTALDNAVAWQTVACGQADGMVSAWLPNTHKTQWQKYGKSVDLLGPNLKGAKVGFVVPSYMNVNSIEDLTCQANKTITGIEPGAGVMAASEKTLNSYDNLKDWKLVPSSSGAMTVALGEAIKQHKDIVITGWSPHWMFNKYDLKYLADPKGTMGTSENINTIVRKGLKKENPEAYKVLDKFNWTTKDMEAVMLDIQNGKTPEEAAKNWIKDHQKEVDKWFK
Nature of the test: smFRET.

What is called Kd is the equilibrium constant for the complex coming apart. A higher Kd goes with lower affinity. For the compound `C[N+](C)(C)CC(=O)[O-]` [GB, glycine betaine], the Kd was approximately 6 µM.
